Reference: patent US12145947B2, “Pyrimidine based modulators and uses thereof” (Quanta Therapeutics, Inc., priority 2022, dated 2024)

Experiments:
[1] = biological target: T1, GST-tagged KRAS-G12D (2-169) (Homo sapiens, UniProt P01116, G12D); test: Nucleotide exchange assay (NEA), SOS-mediated, HTRF, KRAS G12D; assay type: biochemical; settings: Table 4; IC50 extracted at 30 min
T1 construct: GST-tagged KRAS-G12D (2-169, Reaction Biology, MSC-11-539); purchased Reaction Biology MSC-11-539 (KRAS G12D); MSC-11-502 (SOS1cat)
Text: This activity is tightly regulated by GTPase activating proteins (GAPs) and guanine nucleotide exchange factors (GEFs). GEFs, such as SOS1/2, activate Ras proteins by exchanging GDP for GTP, thus returning Ras to its active conformation (Simanshu, Nissley, & McCormick, 2017). […] Homogenous time resolved fluorescence (HTRF) was used to detect SOS-mediated binding of a fluorescent GTP analog, GTP-DY-647P1 (Jena Biosciences NU-820-647P1) to GST-tagged KRAS-G12D (2-169, Reaction Biology, MSC-11-539) or to GST-tagged KRAS-G12V (2-169, Reaction Biology, MSC-11-540).
GST-tagged KRAS-G12D (2-169) and anti-GST MAb Tb Cryptate Gold (CisBio 61GSTTLB) were diluted into assay buffer (20 mM HEPES, pH 7.3, 150 mM NaCl, 5 mM MgCl2, 0.05% BSA 0.0025% NP40, 1 mM DTT) to prepare a 2.5× donor solution. 5× compound was added to the protein mixture and incubated for 1 h at RT. 2.5× acceptor solution containing SOSIcat (564-1049, Reaction Biology MSC-11-502) and GTP-DY-647P1 were then added to the donor KRAS mixture such that the final concentration of the reaction contained 5 nM GST-tagged KRAS-G12D (2-169), 20 nM SOScat, and 150 nM GTP. The reaction was monitored using at RT with the Envision multimode plate reader (Ex/Em 337/665, […]) up to 90 minutes at 5 minute intervals. To monitor KRAS-G12V Sos-mediated nucleotide exchange, 80 nM SOS was added to reaction instead of 20 nM. All other components were the same as previously described. Data was blanked to reactions without SOS1 and % inhibition was calculated such that DMSO only=0% and blank=100%. Curve fitting was done using a 4 parameter fit. Reported IC50 values were extracted at 30 min and 90 min for the KRAS-G12D and KRAS-G12V assays, respectively.
Curve fitting was done using a 4 parameter fit. NEA KRAS G12D IC50 (uM) values of selected compounds are depicted in Table 2 with compounds having a value <0.01 uM as ++++; >0.01 uM to 0.1 uM as +++; >0.1 uM to 1 uM as ++; >1 uM to 20 uM as +; and >20 uM as NA.

[2] = biological target: T2, KRAS G12D/RAF1 (Homo sapiens, UniProt P01116, G12D); test: Protein-protein interaction (PPI) HTRF assay KRAS G12D/RAF1; assay type: binding; settings: Table 4
T2 construct: His6-MBP (N, cleaved yes); made in house; host or cells: E. coli
Description: Biotinylated KRAS wt and KRAS G12DNV proteins were expressed and purified in conditions similar to those previously reported (Tran, et al., 2021) (Zhang, et al., 2020). Briefly, KRAS (1-169) proteins were expressed in E. coli at 18° C. with an upstream TEV cleavage site (ENLFYQS (SEQ ID NO: 6)) followed an Avi tag sequence ([…] (SEQ ID NO: 7)). KRAS expression constructs contained both a His6 (SEQ ID NO: 8) and maltose-binding protein (MBP) tags at the N-terminus for Ni-NTA column purification prior to overnight TEV cleavage and MBP column purification. The avi-tagged NRAS expression construct contained both a His6 tag (SEQ ID NO: 8) and SUMO cleavage sige at the N-terminus for Ni-NTA column purification followed by His-ULPi digestion overnight. All avi-tagged RAS proteins were dialyzed into buffer containing ATP, biotin, and BirA followed by purification over a second Ni-NTA column and then run over a size exclusion HiLoad™ 26/600 Superdex™ column in 20 mM HEPES, pH 7.5, 300 mM NaCl, 5 mM MgCl2, and 1 mM TCEP. Fractions containing the protein of interest were pooled, concentrated, and confirmed by intact mass spectrometry. To prepare ‘GTP’ loaded KRAS and NRAS, biotinylated KRAS or NRAS was nucleotide exchanged from GDP-bound protein to GppNHp-bound (Jena Biosciences, NU-401-50) protein in the presence of alkaline phosphatase and excess GppNHp as previously described and the resulting nucleotide content was confirmed by HPLC reverse phase analytical chromatography (Donohue, et al., 2019) (Tran, et al., 2021).
His-tagged RAF1 (52-131) was similarly expressed in E. coli at 18° C. overnight with an upstream TEV cleavage site. His-tagged RAF1 expression construct contained both a His6 (SEQ ID NO: 8) and MBP tags at the N-terminus for Ni-NTA column purification followed by MBP-tagged TEV digestion overnight. RAF1 protein samples were further purified over a MBP column followed by a Ni-NTA column and a second MBP column. The fractions containing the protein of interest were pooled, concentrated, and further purified over a HiLoad™ 16/600 Superdex™ 75 pg size exclusion column into 20 mM HEPES, pH8.0, 200 mM NaCl, 5 mM TCEP.
When RAS proteins are in the active GTP-bound conformation, they bind the effector protein RAF1 at the N-terminus Ras-binding domain (RBD, residues 52-131) (Tran, et al., 2021). Homogenous time resolved fluorescence (HTRF) was used to monitor the interaction between wt or mutant KRAS and RAF1 or wt NRAS and RAFT. Compounds were assayed in the presence of KRAS G12D/V and RAF1 versus wt KRAS to assess activity against mutant and w.t. KRAS. Similarly, compounds were then assayed in the presence of w.t. NRAS and RAF1 to assess RAS isoform selectivity. In all assay formats, His-tagged RAF1 protein was incubated with the HTRF donor, anti-6His (“6His” disclosed as SEQ ID NO: 8) Tb Cryptate gold (Cisbio 61DB10RDF), and biotinylated RAS proteins were incubated with the HTRF acceptor, streptavidin-d2 (CisBio 610SADLA). The intensity of the fluorescence signal emitted is proportional to binding between the two proteins. The donor solution was prepared by mixing 16 nM His-tagged RAF1 in protein dilution buffer with 1:100 anti-6His (“6His” disclosed as SEQ ID NO: 8) Tb cryptate in PPI-Terbium detection buffer. 16 nM biotinylated RAS protein was diluted into protein dilution buffer (50 mM Tris-HCl pH 7.5, 150 mM NaCl, 0.1 mM MgCl2, 1 mM TCEP, 0.005% Tween20) and mixed with 1:2000 Streptavidin-d2 diluted in PPI-Terbium detection buffer (CisBio 61DBTORDF). 50× compound in DMSO was mixed with 16 nM KRAS-acceptor solution and incubated for 30 minutes at room temperature. After compound pre-incubation with KRAS, the RAF1 donor solution was added to the KRAS-acceptor solution and incubated for 1 hour at room temperature. The fluorescence signal emitted was monitored at 665 nm and 615 nm using an Envision multimode plate reader. […]

T2 sequence (P01116 with tags, fused parts or gaps isoform P01116-2 G12D): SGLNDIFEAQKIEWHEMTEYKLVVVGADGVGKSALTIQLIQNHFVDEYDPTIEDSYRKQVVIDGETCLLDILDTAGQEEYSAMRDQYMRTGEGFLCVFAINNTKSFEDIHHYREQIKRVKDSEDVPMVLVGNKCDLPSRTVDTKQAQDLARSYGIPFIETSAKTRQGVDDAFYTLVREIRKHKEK
T1 sequence (P01116 2-169 isoform P01116-2 G12D): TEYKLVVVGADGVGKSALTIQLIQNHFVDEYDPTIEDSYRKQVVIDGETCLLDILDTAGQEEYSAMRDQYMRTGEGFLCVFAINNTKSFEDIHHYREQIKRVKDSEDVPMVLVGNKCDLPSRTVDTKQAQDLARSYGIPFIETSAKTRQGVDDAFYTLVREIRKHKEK

Compound	IC50 [1] [nM]	IC50 [2] [nM]
CN1CCc2c(cccc2Oc2nc(N3C[C@H]4CC[C@@H](C3)N4)c(C#N)c(N3CC4(CCc5sc(N)c(C#N)c54)C3)n2)C1 [Compound 57, 2-amino-1′-[5-cyano-2-[(2-methyl-3,4-dihydro-1H-isoquinolin-5-yl)oxy]-6-[(1R,5S)-3,8-diazabicyclo[3.2.1]octan-3-yl]pyrimidin-4-yl]spiro[5,6-dihydrocyclopenta[b]thiophene-4,3′-azetidine]-3-carbonitrile]	1000 to 20000	10000 to 100000
N#Cc1c(N2C[C@H]3CC[C@@H](C2)N3)nc(OCC2(CN3CCC(F)(F)C3)CC2)nc1N1CC2(CCc3sc(N)c(C#N)c32)C1 [Compound 58, 2-amino-1′-[5-cyano-6-[(1R,5S)-3,8-diazabicyclo[3.2.1]octan-3-yl]-2-[[1-[(3,3-difluoropyrrolidin-1-yl)methyl]cyclopropyl]methoxy]pyrimidin-4-yl]spiro[5,6-dihydrocyclopenta[b]thiophene-4,3′-azetidine]-3-carbonitrile]	< 10	1000 to 10000
CO/N=C1/CCCN(c2nc(OC[C@@]34CCCN3C[C@H](F)C4)nc(N3CC4(CCc5sc(N)c(C#N)c54)C3)c2C#N)CC1 [Compound 59, 2-amino-1′-[5-cyano-2-[[(2R,8S)-2-fluoro-1,2,3,5,6,7-hexahydropyrrolizin-8-yl]methoxy]-6-[(4Z)-4-methoxyiminoazepan-1-yl]pyrimidin-4-yl]spiro[5,6-dihydrocyclopenta[b]thiophene-4,3′-azetidine]-3-carbonitrile]	100 to 1000	10000 to 100000
Cc1nnc(-c2nn3c(c2Cl)CN(c2nc(OC[C@@]45CCCN4C[C@H](F)C5)nc(N4CC5(CCc6sc(N)c(C#N)c65)C4)c2C#N)CCC3)n1C [Compound 60, 2-amino-1′-[6-[3-chloro-2-(4,5-dimethyl-1,2,4-triazol-3-yl)-4,6,7,8-tetrahydropyrazolo[1,5-a][1,4]diazepin-5-yl]-5-cyano-2-[[(2R,8S)-2-fluoro-1,2,3,5,6,7-hexahydropyrrolizin-8-yl]methoxy]pyrimidin-4-yl]spiro[5,6-dihydrocyclopenta[b]thiophene-4,3′-azetidine]-3-carbonitrile]	< 10	1000 to 10000
N#Cc1c(N2C[C@H]3CC[C@@H](C2)[C@@H]3N)nc(OCC2(CN3CCOCC3)CC2)nc1N1CC2(CCc3sc(N)c(C#N)c32)C1 [Compound 61, 2-amino-1′-[6-[(1R,5S)-8-amino-3-azabicyclo[3.2.1]octan-3-yl]-5-cyano-2-[[1-(morpholinomethyl)cyclopropyl]methoxy]pyrimidin-4-yl]spiro[5,6-dihydrocyclopenta[b]thiophene-4,3′-azetidine]-3-carbonitrile]	10 to 100	100 to 1000
N#Cc1cnc(OCC2(CN3CCOCC3)CC2)nc1N1CC2(CCCc3sc(N)c(C#N)c32)C1 [Compound 63, 2-amino-1′-[5-cyano-2-[[1-(morpholinomethyl)cyclopropyl]methoxy]pyrimidin-4-yl]spiro[6,7-dihydro-5H-benzothiophene-4,3′-azetidine]-3-carbonitrile]	10 to 100	10000 to 100000
N#Cc1c(N2C[C@H]3CC[C@@H](C2)N3)nc(OCC2(CN3CCOCC3)COC2)nc1N1CC2(CCc3sc(N)c(C#N)c32)C1 [Compound 64, 2-amino-1′-[5-cyano-2-[[3-(morpholinomethyl)oxetan-3-yl]methoxy]-6-[(1R,5S)-3,8-diazabicyclo[3.2.1]octan-3-yl]pyrimidin-4-yl]spiro[5,6-dihydrocyclopenta[b]thiophene-4,3′-azetidine]-3-carbonitrile]	< 10	1000 to 10000
N#Cc1cnc(OC[C@@]23CCCN2C[C@H](F)C3)nc1N1CC2(CCc3sc(N)c(C#N)c32)C1 [Compound 65, 2-amino-1′-[5-cyano-2-[[(2R,8S)-2-fluoro-1,2,3,5,6,7-hexahydropyrrolizin-8-yl]methoxy]pyrimidin-4-yl]spiro[5,6-dihydrocyclopenta[b]thiophene-4,3′-azetidine]-3-carbonitrile]	1000 to 20000	10000 to 100000
N#Cc1cnc(OCC2(CN3CCOCC3)CC2)nc1N1CC2(CCc3sc(N)c(C#N)c32)C1 [Compound 66, 2-amino-1′-[5-cyano-2-[[1-(morpholinomethyl)cyclopropyl]methoxy]pyrimidin-4-yl]spiro[5,6-dihydrocyclopenta[b]thiophene-4,3′-azetidine]-3-carbonitrile]	100 to 1000	10000 to 100000
CC1Cn2nncc2CN1c1nc(OC[C@@]23CCCN2C[C@H](F)C3)nc(N2CC3(CCc4sc(N)c(C#N)c43)C2)c1C#N (stereo partly drawn) [Compound 67, 2-amino-1′-[5-cyano-6-(6-methyl-6,7-dihydro-4H-triazolo[1,5-a]pyrazin-5-yl)-2-[[(2R,8S)-2-fluoro-1,2,3,5,6,7-hexahydropyrrolizin-8-yl]methoxy]pyrimidin-4-yl]spiro[5,6-dihydrocyclopenta[b]thiophene-4,3′-azetidine]-3-carbonitrile]	100 to 1000	10000 to 100000
